ChEMBL document CHEMBL1139989, “Aminosuberoyl hydroxamic acids (ASHAs): a potent new class of HDAC inhibitors” (Bioorg Med Chem Lett, 2007)

Tests used:
[1] = Antiproliferative activity against mouse SC9 cells by MTS assay; assay type: functional, cell-based
Histone deacetylase 1 = Histone deacetylase 1 (Homo sapiens, UniProt Q13547); assay: Inhibition of human HDAC 1
Mus musculus = organism: Mus musculus; assay: Decrease in body weight in nude mouse; assay type: functional; set-up: scale not given: the % may be the effect or the level left
HCT-116 = assay: Antitumor activity against human HCT116 cells; assay type: functional

Chain of Histone deacetylase 1 (Q13547 whole entry): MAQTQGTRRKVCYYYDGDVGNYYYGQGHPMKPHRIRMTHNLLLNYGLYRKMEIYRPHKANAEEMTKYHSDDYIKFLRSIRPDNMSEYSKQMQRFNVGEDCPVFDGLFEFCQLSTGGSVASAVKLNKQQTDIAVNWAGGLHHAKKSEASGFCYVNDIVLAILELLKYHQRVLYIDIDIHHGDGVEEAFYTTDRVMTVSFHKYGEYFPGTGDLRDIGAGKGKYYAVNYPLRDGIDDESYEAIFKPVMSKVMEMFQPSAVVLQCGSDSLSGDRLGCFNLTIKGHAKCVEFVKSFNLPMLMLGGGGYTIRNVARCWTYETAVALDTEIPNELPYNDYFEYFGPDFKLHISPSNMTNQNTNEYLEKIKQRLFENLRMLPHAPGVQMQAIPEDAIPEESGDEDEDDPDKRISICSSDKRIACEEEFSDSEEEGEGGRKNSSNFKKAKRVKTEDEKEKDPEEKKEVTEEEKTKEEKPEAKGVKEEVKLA

| Structure (SMILES) | IC50 (Histone deacetylase 1) [nM] | IC50 [1] [nM] | Activity (Mus musculus) [%] | TGI (HCT-116) |
| --- | --- | --- | --- | --- |
| O=C(CCCCC[C@H](NC(=O)OCc1ccccc1)C(=O)Nc1cccc2cccnc12)NO | 14.5 | 39 |  |  |
| O=C(CCCCC[C@H](NC(=O)c1ccc2ccccc2n1)C(=O)Nc1cccc2cccnc12)NO |  | 165 |  |  |
| O=C(CCCCC[C@H](NC(=O)c1ccccn1)C(=O)NCc1ccccc1)NO | 120 | 3420 |  |  |
| O=C(CCCCC[C@H](NC(=O)OCc1ccccc1)C(=O)Nc1ccccc1)NO | 18 | 102 |  |  |
| O=C(CCCCC[C@H](NC(=O)c1ccccc1)C(=O)Nc1cccc2cccnc12)NO | 9.4 | 43 | <20 | >=50% |
| O=C(CCCCC[C@H](NC(=O)c1ccccc1)C(=O)Nc1ccccc1)NO | 12.1 | 73 |  |  |
| O=C(CCCCC[C@H](NC(=O)c1ccc2ccccc2n1)C(=O)Nc1ccccc1)NO | 10 | 33 |  |  |
| O=C(CCCCC[C@H](NC(=O)c1ccc2ccccc2n1)C(=O)NCc1ccccc1)NO | 51.3 | 374 |  |  |
| O=C(CCCCC[C@H](NC(=O)c1ccc2ccccc2n1)C(=O)Nc1ccc2ncccc2c1)NO |  | 107 |  |  |

More lines, in order of falling IC50 (Histone deacetylase 1), values ahead:

| IC50 (Histone deacetylase 1) [nM] | Structure (SMILES) | IC50 [1] [nM] | Activity (Mus musculus) [%] | TGI (HCT-116) |
| --- | --- | --- | --- | --- |
| 93 | O=C(CCCCC[C@H](NC(=O)c1ccccc1)C(=O)NCc1ccccc1)NO | 1040 |  |  |
| 48 | O=C(CCCCC[C@H](NC(=O)OCc1ccccc1)C(=O)NCc1ccccc1)NO | 412 |  |  |
| 11.1 | O=C(CCCCC[C@H](NC(=O)c1ccccn1)C(=O)Nc1ccccc1)NO | 250 | <20 | >=50% |
| 7.7 | O=C(CCCCC[C@H](NC(=O)OCc1ccccc1)C(=O)Nc1ccc2ncccc2c1)NO | 110 |  |  |
| 4 | O=C(CCCCC[C@H](NC(=O)c1ccccn1)C(=O)Nc1cccc2cccnc12)NO | 367 |  |  |
| 3.5 | O=C(CCCCC[C@H](NC(=O)c1ccccc1)C(=O)Nc1ccc2ncccc2c1)NO | 90 |  |  |
| 1.3 | O=C(CCCCC[C@H](NC(=O)c1ccccn1)C(=O)Nc1ccc2ncccc2c1)NO | 756 |  |  |
